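The compound was tested at five concentrations on cells cultured in 96-well plates, with a 48-hour exposure period. GI50: concentration for 50% inhibition of growth.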 The source made the active and inactive calls. No stated cut-off is given here; in the data, active = GI50 up to about 1.1 µM and inactive = higher.
Experiments:
Experiment in all cases: NCI anticancer screen, dose series, 48 h
ACHN = system: ACHN
CCRF-CEM = system: CCRF-CEM
COLO 205 = system: COLO 205
EKVX = system: EKVX
HCC 2998 = system: HCC 2998
IGROV-1 = system: IGROV-1
MCF7 = system: MCF7
MDA-MB-231 = system: MDA-MB-231
Malme-3M = system: Malme-3M
NCI-H460 = system: NCI-H460
NCI-H522 = system: NCI-H522
OVCAR-3 = system: OVCAR-3
OVCAR-4 = system: OVCAR-4
PC-3 = system: PC-3
RPMI-8226 = system: RPMI-8226
SK-MEL-2 = system: SK-MEL-2
SN12C = system: SN12C
U-251 = system: U-251
UO-31 = system: UO-31

| SMILES | GI50 (ACHN) | GI50 (CCRF-CEM) | GI50 (COLO 205) | GI50 (EKVX) | GI50 (HCC 2998) | GI50 (IGROV-1) | GI50 (MCF7) | GI50 (MDA-MB-231) | GI50 (Malme-3M) | GI50 (NCI-H460) | GI50 (NCI-H522) | GI50 (OVCAR-3) | GI50 (OVCAR-4) | GI50 (PC-3) | GI50 (RPMI-8226) | GI50 (SK-MEL-2) | GI50 (SN12C) | GI50 (U-251) | GI50 (UO-31) |
| --- | --- | --- | --- | --- | --- | --- | --- | --- | --- | --- | --- | --- | --- | --- | --- | --- | --- | --- | --- |
| N#C/C(=C\c1ccc([N+](=O)[O-])o1)c1n[nH]c(Cc2ccccc2)n1 | 1.78 µM (inactive) | 0.265 µM (active) | 1.23 µM (inactive) | 2.72 µM (inactive) | 1.63 µM (inactive) | 1.4 µM (inactive) | 2.28 µM (inactive) | 1.57 µM (inactive) | 1.94 µM (inactive) | 3.3 µM (inactive) | 0.368 µM (active) | 1.64 µM (inactive) | 1.82 µM (inactive) | 2.45 µM (inactive) | 0.335 µM (active) | 1.99 µM (inactive) | 1.49 µM (inactive) | 2.81 µM (inactive) | 2.66 µM (inactive) |
| O=[N+]([O-])c1cc2[nH]nnc2c2nonc12 | 23.4 µM (inactive) | 14.4 µM (inactive) | 17.5 µM (inactive) | 65.8 µM (inactive) | 17.9 µM (inactive) | 51.9 µM (inactive) | 3.24 µM (inactive) | 32.7 µM (inactive) | 35.2 µM (inactive) | 35.1 µM (inactive) | 14.3 µM (inactive) | 33.5 µM (inactive) | 30.1 µM (inactive) | 49.4 µM (inactive) | 24 µM (inactive) | 40.7 µM (inactive) | 41.5 µM (inactive) | 28.4 µM (inactive) | 17.9 µM (inactive) |
| O=C(Nc1ccc(Cl)cc1)c1cc(S(=O)(=O)Nc2nc3cccnc3[nH]2)c(SSc2cc(Cl)c(C(=O)Nc3ccc(Cl)cc3)cc2S(=O)(=O)Nc2nc3cccnc3[nH]2)cc1Cl | > 100 µM (inactive) | > 100 µM (inactive) | > 100 µM (inactive) | > 100 µM (inactive) | > 100 µM (inactive) | > 100 µM (inactive) | > 100 µM (inactive) | > 100 µM (inactive) | > 100 µM (inactive) | > 100 µM (inactive) | > 100 µM (inactive) | > 100 µM (inactive) | > 100 µM (inactive) | > 100 µM (inactive) | > 100 µM (inactive) | > 100 µM (inactive) | > 100 µM (inactive) | > 100 µM (inactive) | > 100 µM (inactive) |
| CS(=O)(=O)N1CC(CCl)c2ccc(NCCN)cc21 (stereo unspecified) | 29.9 µM (inactive) | 79.8 µM (inactive) | > 100 µM (inactive) | 47.9 µM (inactive) | > 100 µM (inactive) | 12.5 µM (inactive) | > 100 µM (inactive) | 33.3 µM (inactive) | > 100 µM (inactive) | > 100 µM (inactive) | 23.7 µM (inactive) | > 100 µM (inactive) | 58.9 µM (inactive) | > 100 µM (inactive) | > 100 µM (inactive) | > 100 µM (inactive) | > 100 µM (inactive) | 27.7 µM (inactive) | > 100 µM (inactive) |
| CC(=O)O[C@H]1CC[C@@]2(C)C(=CC[C@H]3[C@@H]4C/C(=C\c5ccncc5)[C@H](OC(C)=O)[C@@]4(C)CC[C@@H]32)C1 | 15.1 µM (inactive) | 3.35 µM (inactive) | 4.08 µM (inactive) | 9.55 µM (inactive) | 13.1 µM (inactive) | 11.6 µM (inactive) | 14.7 µM (inactive) | 19.1 µM (inactive) | 7.67 µM (inactive) | 10.1 µM (inactive) | 3.65 µM (inactive) | 11.3 µM (inactive) | 4.65 µM (inactive) | 18.2 µM (inactive) | 2.46 µM (inactive) | 16.7 µM (inactive) | 16.9 µM (inactive) | 10 µM (inactive) | 8.04 µM (inactive) |
| Cc1cn(CC2=NCC(O)CN2)c(=O)[nH]c1=O (stereo unspecified) | > 100 µM (inactive) | > 100 µM (inactive) | > 100 µM (inactive) | > 100 µM (inactive) | > 100 µM (inactive) | > 100 µM (inactive) | > 100 µM (inactive) | > 100 µM (inactive) | > 100 µM (inactive) | > 100 µM (inactive) | > 100 µM (inactive) | > 100 µM (inactive) | > 100 µM (inactive) | > 100 µM (inactive) | > 100 µM (inactive) | > 100 µM (inactive) | > 100 µM (inactive) | > 100 µM (inactive) | > 100 µM (inactive) |
| COC(=O)c1nc2c3c(cccc3c1C(=O)OC)Nc1ccccc1-2 | 36.6 µM (inactive) | 13.2 µM (inactive) | 28.1 µM (inactive) | 65.8 µM (inactive) | 42.3 µM (inactive) | 32 µM (inactive) | 60.4 µM (inactive) | 23.8 µM (inactive) | 29.2 µM (inactive) | 25.7 µM (inactive) | 10.7 µM (inactive) | 36.6 µM (inactive) | 35.9 µM (inactive) | 15.5 µM (inactive) | 53 µM (inactive) | 28.1 µM (inactive) | 33.4 µM (inactive) | 32.1 µM (inactive) | 18.8 µM (inactive) |
| O=[N+]([O-])c1cccc2nc3ccccc3c(NCCCNc3c4ccccc4nc4cccc([N+](=O)[O-])c34)c12 | 0.0121 µM (active) | 0.0251 µM (active) | 0.0102 µM (active) | 0.0312 µM (active) | 0.0157 µM (active) | 0.128 µM (active) | 0.0151 µM (active) | < 0.0122 µM (active) | 0.0378 µM (active) | < 0.01 µM (active) | 0.0146 µM (active) | < 0.0258 µM (active) | 0.0635 µM (active) | 0.0343 µM (active) | < 0.01 µM (active) | 0.035 µM (active) | < 0.0169 µM (active) | 0.0171 µM (active) | 0.0472 µM (active) |
| COC(=O)C1=C(C)NC(C)=C(C(=O)OC)C1c1cccc(/[N+]([O-])=C/c2ccccc2)c1 | 17.1 µM (inactive) | 11 µM (inactive) | 16.8 µM (inactive) | 72.8 µM (inactive) | > 100 µM (inactive) | 74.3 µM (inactive) | 17.8 µM (inactive) | 17.5 µM (inactive) | 16.3 µM (inactive) | 97.9 µM (inactive) | 16.4 µM (inactive) | 17.4 µM (inactive) | 16.5 µM (inactive) | 46.7 µM (inactive) | 24.4 µM (inactive) | 75 µM (inactive) | > 10 µM (inactive) | > 100 µM (inactive) | 34.2 µM (inactive) |
| COC1(OC)CC(CO)(CNc2cc(Cl)nc(N)n2)C1 | > 100 µM (inactive) | > 100 µM (inactive) | > 100 µM (inactive) | 39.7 µM (inactive) | > 100 µM (inactive) | > 100 µM (inactive) | > 100 µM (inactive) | > 100 µM (inactive) | > 100 µM (inactive) | > 100 µM (inactive) | > 100 µM (inactive) | > 100 µM (inactive) | > 100 µM (inactive) | > 100 µM (inactive) | > 100 µM (inactive) | > 100 µM (inactive) | > 100 µM (inactive) | > 100 µM (inactive) | > 100 µM (inactive) |
| CCCCCCCCCCCC[C@H](O)[C@H]1CC[C@H]([C@H](O)CCCC[C@H](O)CCCCC[C@@H](O)CC2=C[C@H](C)OC2=O)O1 | 1.08 µM (active) | 1.71 µM (inactive) | 4.21 µM (inactive) | 1.6 µM (inactive) | 17.4 µM (inactive) | 3.98 µM (inactive) | 1.4 µM (inactive) | 1.88 µM (inactive) | 17.9 µM (inactive) | 3.04 µM (inactive) | 5.21 µM (inactive) | 2.19 µM (inactive) | 17.6 µM (inactive) | 3.1 µM (inactive) | > 10 µM (inactive) | 3.05 µM (inactive) | 5.83 µM (inactive) | 13.8 µM (inactive) | 1.5 µM (inactive) |
| CCN(CC)CCC(=O)c1ccc(Oc2ccc(Cl)cc2)cc1 | 12.9 µM (inactive) | 19.5 µM (inactive) | 24.3 µM (inactive) | 19.5 µM (inactive) | 18.8 µM (inactive) | 20.4 µM (inactive) | 17.7 µM (inactive) | 14.5 µM (inactive) | 18 µM (inactive) | 14.7 µM (inactive) | 19 µM (inactive) | 15.3 µM (inactive) | 15.8 µM (inactive) | 15.1 µM (inactive) | 3.82 µM (inactive) | 14.5 µM (inactive) | 17.4 µM (inactive) | 16.9 µM (inactive) | 18 µM (inactive) |
| CCOC(=O)C1=CN(C(=O)c2ccccc2)CCC1Cc1ccccc1 (stereo unspecified) | 20.6 µM (inactive) | 18 µM (inactive) | 18.9 µM (inactive) | 24 µM (inactive) | 17.6 µM (inactive) | 27.3 µM (inactive) | 23.1 µM (inactive) | 17.7 µM (inactive) | 25.4 µM (inactive) | 17.5 µM (inactive) | 16.2 µM (inactive) | 25.9 µM (inactive) | 24.5 µM (inactive) | 17.7 µM (inactive) | 13.5 µM (inactive) | 16.8 µM (inactive) | 23.1 µM (inactive) | 21.1 µM (inactive) | 33 µM (inactive) |
| COC(=O)C1=C(C(=O)OC)C2CCC1CC2=O (stereo unspecified) | > 100 µM (inactive) | 31.3 µM (inactive) | 50.9 µM (inactive) | > 100 µM (inactive) | > 100 µM (inactive) | > 100 µM (inactive) | > 100 µM (inactive) | > 100 µM (inactive) | > 100 µM (inactive) | > 100 µM (inactive) | 70.6 µM (inactive) | > 100 µM (inactive) | > 100 µM (inactive) | > 100 µM (inactive) | > 100 µM (inactive) | > 100 µM (inactive) | > 100 µM (inactive) | > 100 µM (inactive) | 55.1 µM (inactive) |

Reference: ChEMBL document CHEMBL1201862, “PubChem BioAssay data set” (2004)
